Source: PubChem BioAssay (NCI)
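Cells were grown in 96-well plates and exposed to each compound for 48 hours at five concentrations; endpoints were interpolated linearly between bracketing concentrations, or set to the highest concentration if not reached. The concentration for full growth arrest is given as TGI.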

Columns and labels:
Assay in all cases: NCI tumour cell line growth inhibition, 48 h
[1] = test system: RXF-631 renal
[2] = test system: P388 leukemia
[3] = test system: P388/ADR leukemia
[4] = test system: SN12K1 renal

Row | Compound | TGI [1] [µM] | TGI [2] [µM] | TGI [3] [µM] | TGI [4] [µM]
1 | O=S(OC12CC3CC(CC(C3)C1)C2)c1cc(Cl)cc(Cl)c1OCc1ccccc1 (configuration not stated) | > 100 |  |  | 
2 | O=C1C=C2SC3C[C@@]24CC1[N+]1=c2c4c(c(O)c4c2=C(C=N4)CC1)N3 |  | 4.15 | 23.1 | 3.76
3 | O=C1C=CC(=C(c2ccc(O)cc2)c2ccc(O)cc2)C=C1 | 29.6 |  |  | 
4 | O=[N+]([O-])c1ccccc1S(=O)(=O)c1ccccc1 | 47 |  |  | 
5 | C=CCc1cc(-c2cc(CC=C)c(O)c(CN(CC)CC)c2)cc(CN(CC)CC)c1O | 44.5 |  |  | 
